Data from patent US6686385B2, “Anhydro sugar derivatives of indolocarbazoles” (Bristol-Myers Squibb Company, priority 2000, dated 2004).

Key:
human topoisomerase I = target: T1, human topoisomerase I (Homo sapiens, UniProt P11387); assay: Topoisomerase I activity (in vitro): compound-induced, topoisomerase I-mediated single strand breaks in PM2 DNA; type: biochemical; conditions: purified human topoisomerase I (Topogen), 30 minutes at 37° C., median effective concentration for inducing single strand breaks, read-out: TOPO I EC50
T1 construct: purchased Topogen
T1 sequence (P11387 1-765): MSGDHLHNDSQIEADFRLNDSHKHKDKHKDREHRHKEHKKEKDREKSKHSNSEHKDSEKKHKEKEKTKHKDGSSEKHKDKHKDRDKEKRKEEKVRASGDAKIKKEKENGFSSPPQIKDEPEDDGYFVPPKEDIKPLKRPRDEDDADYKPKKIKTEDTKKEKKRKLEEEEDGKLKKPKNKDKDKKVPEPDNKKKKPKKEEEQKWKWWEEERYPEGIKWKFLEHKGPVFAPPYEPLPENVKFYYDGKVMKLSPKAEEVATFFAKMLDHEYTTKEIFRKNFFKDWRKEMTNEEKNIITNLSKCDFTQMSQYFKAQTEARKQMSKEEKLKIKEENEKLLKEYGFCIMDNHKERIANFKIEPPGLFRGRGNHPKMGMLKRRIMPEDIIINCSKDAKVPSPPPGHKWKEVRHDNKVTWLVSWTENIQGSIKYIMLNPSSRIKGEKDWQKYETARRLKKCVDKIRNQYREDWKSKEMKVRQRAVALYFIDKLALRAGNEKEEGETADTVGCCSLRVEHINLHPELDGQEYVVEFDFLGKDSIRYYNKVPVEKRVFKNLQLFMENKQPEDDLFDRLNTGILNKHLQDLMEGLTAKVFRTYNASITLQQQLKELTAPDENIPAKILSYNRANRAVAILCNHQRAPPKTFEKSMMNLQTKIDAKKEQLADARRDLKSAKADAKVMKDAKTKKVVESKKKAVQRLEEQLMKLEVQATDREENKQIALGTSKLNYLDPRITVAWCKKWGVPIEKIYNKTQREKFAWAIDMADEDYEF
Experimental: Topoisomerase I activity was measured as described below: The procedure for assaying compound-induced, topoisomerase I-mediated single strand breaks in DNA was essentially that described by Hsiang, et al., (J. Biol. Chem. 1985, 260,14873-14878). Samples dissolved in 100% DMSO as either […] or 10 mg/ml solutions, unless otherwise stated, were diluted in Tris-EDTA buffer. Marine bacteriophage PM2 DNA (Boehringer Mannheim) was also diluted in Tris-EDTA buffer to a concentration of 0.02 μg/μl. Different dilutions of compound being evaluated were mixed with diluted DNA and this mixture was added to 1000 unit (one unit of enzyme activity is defined as the amount capable of relaxing 100 ng of supercoiled DNA in approximately 30 minutes at 37° C.) aliquots of purified human topoisomerase I (Topogen) in 2×reaction buffer to start the reaction. The compound—DNA—enzyme mixture was incubated for 30 minutes at 37° C. before stopping the reaction with warm stop buffer containing sodium dodecyl sulfate and proteinase K (Sigma). These mixtures were allowed to incubate at 37° C. for another 10 minutes, at which time the mixtures were removed from the waterbath and extracted with a 24:1 mixture of chloroform/isoamyl alcohol. Following centrifugation, aliquots of the aqueous phases were placed in wells of a 0.9% agarose (SeaKem) gel in Tris-borate buffer containing 0.5 μg/ml of ethidium bromide and subjected to electrophbresis for 15 hours to separate the different topological isomers and nicked and broken DNAs. After destaining the gel in water, the ethidium bromide stained DNA reaction products were visualized by exposing the gel to UV irradiation. Negatives of photographs of the irradiated gels were scanned with a densitometer and areas under the peaks were calculated in order to obtain percent-single strand DNA break formation for each sample. A median effective concentration(EC50) was obtained for each compound by interpolation between points of the resulting dose-effect curve which defines the potency of the compound for its effect in inducing topoisomerase I-mediated single strand breaks in DNA.

murine P388 cell line = assay: In vitro cell-based cytotoxicity / proliferation inhibition (XTT assay); conditions: Mus musculus, 72 hrs incubation, absorbance at 450 nm
Experimental: The proliferation inhibition activity against murine P388 cell line was measured as follow. […] The cells were incubated at 37° C. for 72 hrs at which time the tetrazolium dye, XTT, containing phenazine methosulfate was added. A dehydrogenase enzyme in live cells reduoes the XTT to a form that absorbs light at 450 nm which can be quantitated spectrophotometrically. The greater the absorbance the greater the number of live cells. The results are expressed as an IC50 which is the drug concentration required to inhibit cell proliferation (i.e. absorbance at 450 nm) to 50% of that of untreated control cells.

Row | SMILES | EC50 (human topoisomerase I) [nM] | IC50 (murine P388 cell line) [nM] | melting point [°C]
1 | O=C1NC(=O)c2c1c1c3cc(F)ccc3[nH]c1c1c2c2cc(F)ccc2n1C1O[C@H](CO)[C@H]2O[C@H]2[C@H]1O (stereo partly drawn) [Example 8, 3,9-Difluoro-12,13-dihydro-13-[(3,4-anhydro)-β-D-glucopyranosyl]-5H-indolo[2,3-a]pyrrolo[3,4-c]carbazole-5,7(6H)-dione] | 18 | 5.3 | 
2 | O=C1NC(=O)c2c1c1c3cc(F)ccc3[nH]c1c1c2c2cc(F)ccc2n1[C@H]1OC2COC([C@@H]2O)[C@H]1O (stereo partly drawn) [Example 2, 3,9-Difluoro-12,13-dihydro-13-[(3,6-anhydro)-α-D-glucopyranosyl]-5H-indolo[2,3-a]pyrrolo[3,4-c]carbazole-5,7(6H)-dione] | 360 | 38.8 | 
3 | O=C1NC(=O)c2c1c1c3cc(F)ccc3sc1c1c2c2cc(F)ccc2n1[C@H]1O[C@@H]2CO[C@H]([C@H]1O)[C@@H]2O [Example 13, 3,9-Difluoro-13-(3,6-anhydro-α-D-glucopyranosyl)-5H,13H-benzo[β]thienyl[2,3-a]pyrrolo[3,4-c]carbazole-5,7(6H)-dione] | 110 | 23.2 | > 305
4 | O=C1NC(=O)c2c1c1c3cc(F)ccc3[nH]c1c1c2c2cc(F)ccc2n1[C@@H]1O[C@@H]2CO[C@H]([C@H]1O)[C@H]2O [Example 18, 3,9-Difluoro-12,13-dihydro-13-[(3,6-anhydro)-β-D-galactopyranosyl]-5H-indolo[2,3-a]pyrrolo[3,4-c]carbazole-5,7(6H)-dione] | 180 | 123 | 
5 | O=C1NC(=O)c2c1c1c3cc(F)ccc3[nH]c1c1c2c2cc(F)ccc2n1[C@@H]1OC2COC(C2O)C1O (stereo partly drawn) [Example 1, 3,9-Difluoro-12,13-dihydro-13-[(3,6-anhydro)-β-D-glucopyranosyl]-5H-indolo[2,3-a]pyrrolo[3,4-c]carbazole-5,7(6H)-dione] | 85 | 93 | 
6 | O=C1c2c(c3c4cc(F)ccc4n([C@@H]4OC5COC([C@@H]5O)[C@H]4O)c3c3[nH]c4ccc(F)cc4c23)C(=O)N1O (stereo partly drawn) [Example 3, 3,9-Difluoro-12,13-dihydro-13-[(3,6-anhydro)-β-D-glucopyranosyl]-5H-indolo[2,3-a]pyrrolo[3,4-c]carbazole-5,7(6-N-hydroxyl)-dione] | 14 | 14.6 | 
7 | NN1C(=O)c2c(c3c4cc(F)ccc4n([C@@H]4OC5COC([C@@H]5O)[C@H]4O)c3c3[nH]c4ccc(F)cc4c23)C1=O (stereo partly drawn) [Example 4, 3,9-Difluoro-12,13-dihydro-13-[(3,6-anhydro)-β-D-glucopyranosyl]-5H-indolo[2,3-a]pyrrolo[3,4-c]carbazole-5,7(6-N-amino)-dione] | 10 | < 3 | 
8 | O=C1NC(=O)c2c1c1c3cc(F)ccc3[nH]c1c1c2c2cc(F)ccc2n1[C@@H]1OC2COC(C2)C1O (stereo partly drawn) [Example 11, 3,9-Difluoro-12,13-dihydro-13-[(3,6-anhydro-4-deoxy)-β-D-glucopyranosyl]-5H-indolo[2,3-a]pyrrolo[3,4-c]carbazole-5,7(6H)-dione] | 130 | 70 | 
9 | O=C1NC(=O)c2c1c1c3cc(F)ccc3[nH]c1c1c2c2cc(F)ccc2n1C1O[C@H](CF)[C@@H](F)[C@H]2O[C@@H]12 (stereo partly drawn) [Example 7, 3,9-Difluoro-12,13-dihydro-13-[(2,3-anhydro)-(4,6-difluoro)-β-D-glucopyranosyl]-5H-indolo[2,3-a]pyrrolo[3,4-c]carbazole-5,7(6H)-dione] | 580 | 493 | 
10 | O=C1NC(=O)c2c1c1c3ccc(F)cc3[nH]c1c1c2c2ccc(F)cc2n1[C@@H]1O[C@@H]2CO[C@H]([C@H]1O)[C@@H]2O [Example 14, 12-(3,6-Anhydro-β-D-glucopyranosyl)-2,10-difluoro-12,13-dihydro-5H-indolo[2,3-a]pyrrolo[3,4-c]carbazole-5,7(6H)-dione] | 5500 | 6220 | > 300
11 | O=C1NC(=O)c2c1c1c3cc(F)c(F)cc3[nH]c1c1c2c2cc(F)c(F)cc2n1[C@@H]1O[C@@H]2CO[C@@H](C2)[C@H]1O [Example 16, 2,3,9,10-Tetrafluoro-12-(3,6-anhydro-4-deoxy-β-D-glucopyranosyl)-6,7,12,13-tetrahydro(5H)indolo[2,3-a]pyrrolo[3,4-c]carbazole-5,7-dione] |  | 310 | 
12 | O=C1NC(=O)c2c1c1c3ccc(F)cc3[nH]c1c1c2c2ccc(F)cc2n1[C@@H]1O[C@H](CO)[C@H]2O[C@H]2[C@H]1O [Example 12] | 580 | 107 | > 300
13 | O=C1NC(=O)c2c1c1c3cc(F)c(F)cc3[nH]c1c1c2c2cc(F)c(F)cc2n1[C@@H]1O[C@@H]2CO[C@H]([C@H]1O)C2(F)F [Example 17, 2,3,9,10-Tetrafluoro-12-(3,6-anhydro-4-deoxy-4,4-difluoro-β-D-glucopyranosyl)-6,7,12,13-tetrahydro(5H)indolo[2,3-a]pyrrolo[3,4-c]carbazole-5,7-dione] | 15000 | 240 | 
14 | O=C1c2c(c3c4cc(F)ccc4n(C4O[C@H]5[C@H](OC[C@H]5O)[C@H]4O)c3c3[nH]c4ccc(F)cc4c23)C(=O)N1O (stereo partly drawn) [Example 6, 3,9-Difluoro-12,13-dihydro-13-[(2,6-dihydroxy)-(4,8-dioxa)-bicyclo[3.3.0]oct-3-yl]-5H-indolo[2,3-a]pyrrolo[3,4-c]carbazole-5,7(6-N-hydroxyl)-dione] | 10 | 14.1 | 
